Patent US20180045744A1, “N[…] DRUG CONCENTRATIONS IN ORAL FLUIDS AND TESTING FOR POTENTIAL NON-[…] DRUG TREATMENT REGIMEN” (Ameritox, LLC, priority 2015, published 2018)

Test: Oral fluid testing: concentration of the primary metabolite (parent drug) in oral fluid of patients
Type: in vivo, human
Description: In some embodiments, the amount of a drug in a subject is determined by analyzing a fluid of the subject. The term “fluid” as used herein refers to oral fluid and any liquid or pseudo-liquid obtained from the oral cavity of the subject. Non-limiting examples include saliva, mucus, and the like. In an embodiment, the fluid is oral fluid.
Determining the amount of a drug in oral fluid of the subject may be accomplished by use of any method known to those skilled in the art. Non-limiting examples for determining the amount of a drug in fluid of a subject include fluorescence polarization immunoassay (“FPIA,” Abbott Diagnostics), mass spectrometry (MS), gas chromatography-mass spectrometry (GC-MS-MS), liquid chromatography-mass spectrometry (LC-MS-MS), and the like. In one embodiment, LC-MS-MS methods known to those skilled in the art are used to determine a raw level, amount or concentration of a drug in oral fluid of the subject. In one embodiment, a raw level or concentration of a drug in oral fluid of a subject is measured and reported as a ratio, percent, or in relationship to the amount of fluid. The amount of fluid may be expressed as a unit volume, for example, in L, mL, μL, pL, ounce, etc. In one embodiment, the raw amount of a drug in oral fluid of a subject may be expressed as an absolute level or value, for example, in g, mg, pg, ng, pg, etc.
(§1) The results (drug concentration of the primary metabolite), demographic information (gender, weight, height, and age), and the prescribed dosage of hydrocodone for fifty randomly selected patients—not included in the patient population used to design the models—were used to assess the validity and robustness of the models.
as §1, with “oxycodone” for “hydrocodone”

SMILES | concentration of the primary metabolite (parent drug) in oral fluid (Example 1: subject, 180 lbs, 65 inches, 30 mg daily dose of hydrocodone) | concentration of the primary metabolite (parent drug) in the oral fluid (Example 2: subject, 225 lbs, 69 inches, 40 mg daily dose of hydrocodone) | concentration of the primary metabolite (parent drug) in the oral fluid (Example 3: subject, 254 lbs, 71 inches, 90 mg daily dose of oxycodone) | concentration of the primary metabolite (parent drug) in the oral fluid (Example 4: subject, 113 lbs, 64 inches, 60 mg daily dose)
COc1ccc2c3c1O[C@H]1C(=O)CC[C@H]4[C@@H](C2)N(C)CC[C@]314 [Hydrocodone, hydrocodone] | 34 ng/mL | 101 ng/m I |  | 
COc1ccc2c3c1O[C@H]1C(=O)CC[C@@]4(O)[C@@H](C2)N(C)CC[C@]314 [Oxycodone, oxycodone] |  |  | 429 ng/mL | 50 ng/mL
